Patent publication US20200131473A1, “METHOD OF GENERATING 2 CELL-LIKE STEM CELLS” (IFOM FONDAZIONE ISTITUTO FIRC DI ONCOLOGIA MOLECOLARE, priority 2017, published 2020)
“Also recorded” adds a separate entry of the source.

Legend:
[1] = test system: pZscan4-Emerald ESCs; experiment: FACS analysis of Zscan4-Emerald ESCs (Emerald-GFP positive cells); format: cell-based, mouse; conditions: for elevated expression of 2C-like specific genes (Zscan4, MERVL) upon APH and HU treatment: inhibitor added under replication stress, flow cytometry and immunoblot
Method: All treatments including APH, HU, UV, ATRi, ATMi and Chk1i were added in to fresh ESC medium and the cells were kept in 37° C. and 3% 02 tension for overnight (16-17 hrs) unless mentioned in each particular result section. APH was used at various concentrations ranging from 0.3 uM to 6 uM that is mentioned in each experiment in order to induce mild to acute replication stress response. Similarly, HU was used at 0.1 mM-3 mM. ATMi (KU-55933) and ATRi (VE 822) were used at the concentration of 10 uM and 1 uM respectively. Moreover, Chk1i (UCN-01) at the concentration of 100 nM was used. UV radiation was performed at the dosage ranging from 2 to 10 J/m2. For induction of ETAA1-AAD expression, Dox was used at the concentration of 1 μg/mL for 48 hrs.
ESCs were fixed and permeabilized using Cytoperm/Cytofix kit (BD Biosciences), and subsequently stained for one hour at room temperature with Alexa Fluor® 647 anti-H2AX-Phosphorylated (Ser139) antibody (Biolegend) or P-CHK1-PE conjugated antibody (cell signaling 12268). Cells were washed and acquired on a FACS Calibur instrument or Attune NxT (Thermo Fisher Scientific). For Emerald-GFP acquisition, cells were trypsinized, collected and subsequently acquired without fixation. Cell cycle profiles were acquired after incubation with DAPI (4′,6-diamidino-2-phenylindole) overnight. For Caspase3 FACS analysis after fixation and permeabilization, Cleaved Caspase3 antibody were used for one hr at RT followed by washes and one hr incubation in donkey anti rabbit secondary antibody. […]

[2] = test system: ESC lines E14, R1 and MC1; experiment: High-throughput transcriptional profiling (RNA sequencing) of ESC lines E14, R1 and MC1; format: cell-based, mouse
Method: RNA samples were quantified using Qubit 2.0 Fluorometer (Life Technologies, Carlsbad, Calif., USA) and RNA integrity was checked with RNA Screen Tape on Agilent 2200 TapeStation (Agilent Technologies, Palo Alto, Calif., USA). […] RNA sequencing library preparation was prepared using Ribo-Zero rRNA Removal Kit and TruSeq Stranded Total RNA library Prep kit following manufacturer's protocol (Illumina, Cat # RS-122-2101). Briefly, rRNA was depleted with Ribo-Zero rRNA Removal Kit. rRNA depleted RNAs were fragmented for 8 minutes at 94° C. First strand and second strand cDNA were subsequently synthesized. The second strand of cDNA was marked by incorporating dUTP during the synthesis. cDNA fragments were adenylated at 3′ends, and indexed adapter was ligated to cDNA fragments. Limited cycle PCR was used for library enrichment. The incorporated dUTP in second strand cDNA quenched the amplification of second strand, which helped to preserve the strand specificity. Sequencing libraries were validated using DNA Analysis Screen Tape on the Agilent 2200 TapeStation (Agilent Technologies, Palo Alto, Calif., USA), and quantified by using Qubit 2.0 Fluorometer (Invitrogen, Carlsbad, Calif.) as well as by quantitative PCR (Applied Biosystems, Carlsbad, Calif., USA).
The sequencing libraries were multiplexed and clustered on 1 lane of flowcell. […] On average ˜29 million reads were generated for a sample and average insert size ranged between 204-231 for the samples.
Transcript and gene level quantification was done with Kallisto (version 0.43.0)^16. […] Additionally, all reads were mapped with the STAR spliced aligner (version 2.5.2b)^17 to the GRCm38 (mm10) genome after trimming the reads to 100 bp with Trimmomatic (version 0.36)^18. Repeat expression was quantified by counting fragments overlapping with the repeat annotation from the Choi et al. 2017 paper, with using FeatureCounts from the subread package (version 1.5.2)^19. […]
Read counts for each sample estimated by Kallisto were imported into the R statistical environment (version 3.2.2) using tximport (version 1.1.2)^20. […]

[3] = test system: morula-stage embryos; experiment: Mouse chimaera assay; format: in vivo; conditions: APH-treated mCherry ESCs injected into morula, 24 hrs post injection; 7 out of 35
Method: Briefly, morula stage embryos were bought from Charles River laboratories. They were thawed few hours prior to injection and about five to eight ESC were injected into the perivitelline space of high quality morula-stage embryos using laser-assisted technique and glass micro-capillary tubes. Finally, embryos were cultured for 24 hours at 37 C, 5% CO2 to allow the blastocysts development prior to the microscopic analysis.
For ETAA-1 inducible cells, 8-cell morulae were obtained from superovulated C57BL/6 prepubescent females from Janvier Labs. Ten ESCs were injected into each morula after piercing their zona pellucida with beveled microinjection needle. Embryos were kept in M2 medium during the injection and afterwards in KSOM medium at 37° C. under 5% CO2. Morulae were either cultured for 48 hrs to study ESC contribution at late blastocyst stage (E4.5), or transferred to pseudopregnant females and later dissected at E7.5. Chimerism and ESC contribution to the various embryonic layers were assessed by emission of mCherry fluorescence signal.
For the APH-treated ESCs, frozen morula-stage embryos were purchased from Charles River and Janvier laboratories. Embryos were thawed 2 hrs prior to injection and 4 to 8 ESCs were transferred into the perivitelline space by laser-assisted microinjection method. […]

SMILES	elevated expression of 2C-like specific genes (Zscan4, MERVL) upon APH and HU treatment [1]	elevated expression of 2C-like specific genes (Zscan4, MERVL) upon APH and HU treatment ([1]; listed as ATR inhibitor)	number of Zscan4-Emerald positive cells ([1]; normal culture condition, ATRi 1 uM, ATMi 10 uM)	genes shared between APH and DUX-induced condition rescued ([2]; APH plus ATRi) [%]	number of Emerald-GFP positive (Em+) ESCs ([1]; RS inducing agents, dose-dependent, qPCR and FACS)	downregulated genes ([2]; APH treatment, FDR<0.05) [genes]	upregulated genes with more than two-fold change ([2]; APH treatment, FDR<0.05) [genes]	chimeric embryos with contribution to the trophectoderm layer of the blastocysts [3] [%]
CNCc1ccc(-c2cc(-c3nc(-c4ccc(S(=O)(=O)C(C)C)cc4)cnc3N)on2)cc1 [VE 822]	robustly revert	robustly suppress	markedly reduce; also recorded: marked reduction	71				
C[C@@]1(CO)[C@H](O)CC[C@@]2(C)[C@H]1CC[C@H]1C[C@@H]3C[C@@]12CC[C@]3(O)CO [APH, aphidicolin]					significant increase	640	3074	20
